In article PMC7156458, “Synthetic biology based construction of biological activity-related library of fungal decalin-containing diterpenoid pyrones” (Nature Communications, 2020):

Target: Aβ42 (Homo sapiens, UniProt P05067)
Assay: Th-T (thioflavin-T) assay of Aβ42 aggregation
Type: biochemical
Conditions: for Th-T fluorescence, mean of three wells: Aβ42 aggregation time course

Sequence of Aβ42 (P05067 672-713): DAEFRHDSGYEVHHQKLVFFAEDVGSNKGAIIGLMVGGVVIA

C=C1CCC2C(C)(CCC=C(C)C)C(O)CCC2(C)C1Cc1c(OC)oc(C)c(C(=O)OC)c1=O (stereo not drawn) [Compound 14]
delay of the nucleation phase: no delay | elongation of Aβ42: partly suppressed the elongation of Aβ42 | first Th-T assay result (Aβ42 (10 μM) ± DPPs (20 μM), room temperature): suppressed Aβ42 | Th-T fluorescence, mean of three wells (reading M117): 1.655 | Th-T fluorescence, mean of three wells (reading M118): 1.6572 | Th-T fluorescence, mean of three wells (reading M119): 1.678 | Th-T fluorescence, mean of three wells (reading M120): 1.679 | Th-T fluorescence, mean of three wells (reading M121): 1.668 | Th-T fluorescence, mean of three wells (reading M122): 1.683 | Th-T fluorescence, mean of three wells (reading M123): 1.681 | Th-T fluorescence, mean of three wells (reading M124): 1.6777 | Th-T fluorescence, mean of three wells (reading M125): 1.687 | Th-T fluorescence, mean of three wells (reading M126): 1.688 | Th-T fluorescence, mean of three wells (reading M127): 1.689 | Th-T fluorescence, mean of three wells (reading M128): 1.7014 | Th-T fluorescence, mean of three wells (reading M129): 1.701 | Th-T fluorescence, mean of three wells (reading M130): 1.6991 | Th-T fluorescence, mean of three wells (Fig. 7a) (column suffix _10, measurement M19): 1.991 | Th-T fluorescence, mean of three wells (Fig. 7a) (column suffix _10, measurement M20): 2.087 | Th-T fluorescence, mean of three wells (Fig. 7a) (column suffix _10, measurement M21): 2.17 | Th-T fluorescence, mean of three wells (Fig. 7a) (column suffix _10, measurement M22): 2.206 | Th-T fluorescence, mean of three wells (Fig. 7a) (column suffix _10, measurement M23): 2.232 | Th-T fluorescence, mean of three wells (Fig. 7a) (column suffix _10, measurement M24): 2.258 | Th-T fluorescence, mean of three wells (Fig. 7a) (column suffix _10, measurement M25): 2.291 | Th-T fluorescence, mean of three wells (Fig. 7a) (column suffix _10, measurement M26): 2.3072 | Th-T fluorescence, mean of three wells (Fig. 7a) (column suffix _10, measurement M27): 2.333 | Th-T fluorescence, mean of three wells (Fig. 7a) (column suffix _10, measurement M28): 2.3263 | Th-T fluorescence, mean of three wells (Fig. 7a) (column suffix _10, measurement M29): 2.338 | Th-T fluorescence, mean of three wells (Fig. 7a) (column suffix _10, measurement M30): 2.363 | Th-T assay signal, mean of three wells (Fig. 7a) (column suffix _10, reading M1): 0.2293 | Th-T assay signal, mean of three wells (Fig. 7a) (column suffix _10, reading M2): 0.2207 | Th-T assay signal, mean of three wells (Fig. 7a) (column suffix _10, reading M3): 0.2333 | Th-T assay signal, mean of three wells (Fig. 7a) (column suffix _10, reading M4): 0.2495 | Th-T assay signal, mean of three wells (Fig. 7a) (column suffix _10, reading M5): 0.2748 | Th-T assay signal, mean of three wells (Fig. 7a) (column suffix _10, reading M6): 0.3168 | Th-T assay signal, mean of three wells (Fig. 7a) (column suffix _10, reading M7): 0.3327 | Th-T assay signal, mean of three wells (Fig. 7a) (column suffix _10, reading M8): 0.3584 | Th-T assay signal, mean of three wells (Fig. 7a) (column suffix _10, reading M9): 0.3937 | Th-T assay signal, mean of three wells (Fig. 7a) (column suffix _10, reading M10): 0.4248 | Th-T assay signal, mean of three wells (Fig. 7a) (column suffix _10, reading M11): 0.4498 | Th-T assay signal, mean of three wells (Fig. 7a) (column suffix _10, reading M12): 0.5064 | Th-T assay signal, mean of three wells (Fig. 7a) (column suffix _10, reading M13): 0.6552 | Th-T assay signal, mean of three wells (Fig. 7a) (column suffix _10, reading M14): 0.8811 | Th-T assay signal, mean of three wells (Fig. 7a) (column suffix _10, reading M15): 1.163 | Th-T assay signal, mean of three wells (Fig. 7a) (column suffix _10, reading M16): 1.433 | Th-T assay signal, mean of three wells (Fig. 7a) (column suffix _10, reading M17): 1.668 | Th-T assay signal, mean of three wells (Fig. 7a) (column suffix _10, reading M18): 1.846 | Fig. 7a Th-T reading, mean of three wells (column suffix _10, reading M85): 2.79 | Fig. 7a Th-T reading, mean of three wells (column suffix _10, reading M86): 2.788 | Fig. 7a Th-T reading, mean of three wells (column suffix _10, reading M87): 2.811 | Fig. 7a Th-T reading, mean of three wells (column suffix _10, reading M88): 2.833 | Fig. 7a Th-T reading, mean of three wells (column suffix _10, reading M89): 2.856 | Fig. 7a Th-T reading, mean of three wells (column suffix _10, reading M90): 2.853 | Fig. 7a Th-T reading, mean of three wells (column suffix _10, reading M91): 2.848 | Fig. 7a Th-T reading, mean of three wells (column suffix _10, reading M92): 2.836 | Fig. 7a Th-T reading, mean of three wells (column suffix _10, reading M93): 2.868 | Fig. 7a Th-T reading, mean of three wells (column suffix _10, reading M94): 2.853 | Fig. 7a Th-T reading, mean of three wells (column suffix _10, reading M95): 2.8555 | Fig. 7a Th-T reading, mean of three wells (column suffix _10, reading M96): 2.819 | Fig. 7a Th-T reading, mean of three wells (column suffix _10, reading M97): 2.823 | Fig. 7a Th-T reading, mean of three wells (column suffix _10, reading M98): 2.843 | Fig. 7a Th-T reading, mean of three wells (column suffix _10, reading M99): 2.862 | Fig. 7a Th-T reading, mean of three wells (column suffix _10, reading M100): 2.849 | Fig. 7a Th-T reading, mean of three wells (column suffix _10, reading M101): 2.83 | Fig. 7a Th-T reading, mean of three wells (column suffix _10, reading M102): 2.84 | Fig. 7a Th-T reading, mean of three wells (column suffix _10, reading M103): 2.843 | Fig. 7a Th-T reading, mean of three wells (column suffix _10, reading M104): 2.878 | Fig. 7a Th-T reading, mean of three wells (column suffix _10, reading M105): 2.894 | Fig. 7a Th-T reading, mean of three wells (column suffix _10, reading M106): 2.859 | Th-T fluorescence, mean of three wells (Fig. 7a) (column suffix _20, measurement M19): 1.051 | Th-T fluorescence, mean of three wells (Fig. 7a) (column suffix _20, measurement M20): 1.16 | Th-T fluorescence, mean of three wells (Fig. 7a) (column suffix _20, measurement M21): 1.235 | Th-T fluorescence, mean of three wells (Fig. 7a) (column suffix _20, measurement M22): 1.279 | Th-T fluorescence, mean of three wells (Fig. 7a) (column suffix _20, measurement M23): 1.352 | Th-T fluorescence, mean of three wells (Fig. 7a) (column suffix _20, measurement M24): 1.3992 | Th-T fluorescence, mean of three wells (Fig. 7a) (column suffix _20, measurement M25): 1.478 | Th-T fluorescence, mean of three wells (Fig. 7a) (column suffix _20, measurement M26): 1.556 | Th-T fluorescence, mean of three wells (Fig. 7a) (column suffix _20, measurement M27): 1.595 | Th-T fluorescence, mean of three wells (Fig. 7a) (column suffix _20, measurement M28): 1.672 | Th-T fluorescence, mean of three wells (Fig. 7a) (column suffix _20, measurement M29): 1.711 | Th-T assay signal, mean of three wells (Fig. 7a) (column suffix _20, reading M1): 0.305 | Th-T assay signal, mean of three wells (Fig. 7a) (column suffix _20, reading M2): 0.2567 | Th-T assay signal, mean of three wells (Fig. 7a) (column suffix _20, reading M3): 0.2803 | Th-T assay signal, mean of three wells (Fig. 7a) (column suffix _20, reading M4): 0.2741 | Th-T assay signal, mean of three wells (Fig. 7a) (column suffix _20, reading M5): 0.2931 | Th-T assay signal, mean of three wells (Fig. 7a) (column suffix _20, reading M6): 0.3005 | Th-T assay signal, mean of three wells (Fig. 7a) (column suffix _20, reading M7): 0.3085 | Th-T assay signal, mean of three wells (Fig. 7a) (column suffix _20, reading M8): 0.3015 | Th-T assay signal, mean of three wells (Fig. 7a) (column suffix _20, reading M9): 0.3254 | Th-T assay signal, mean of three wells (Fig. 7a) (column suffix _20, reading M10): 0.3505 | Th-T assay signal, mean of three wells (Fig. 7a) (column suffix _20, reading M11): 0.3712 | Th-T assay signal, mean of three wells (Fig. 7a) (column suffix _20, reading M12): 0.4273 | Th-T assay signal, mean of three wells (Fig. 7a) (column suffix _20, reading M13): 0.4951 | Th-T assay signal, mean of three wells (Fig. 7a) (column suffix _20, reading M14): 0.5807 | Th-T assay signal, mean of three wells (Fig. 7a) (column suffix _20, reading M15): 0.6574 | Th-T assay signal, mean of three wells (Fig. 7a) (column suffix _20, reading M16): 0.7497 | Th-T assay signal, mean of three wells (Fig. 7a) (column suffix _20, reading M17): 0.8453 | Th-T assay signal, mean of three wells (Fig. 7a) (column suffix _20, reading M18): 0.9743 | Fig. 7a Th-T reading, mean of three wells (column suffix _20, reading M85): 1.842 | Fig. 7a Th-T reading, mean of three wells (column suffix _20, reading M86): 1.882 | Fig. 7a Th-T reading, mean of three wells (column suffix _20, reading M87): 1.842 | Fig. 7a Th-T reading, mean of three wells (column suffix _20, reading M88): 1.862 | Fig. 7a Th-T reading, mean of three wells (column suffix _20, reading M89): 1.848 | Fig. 7a Th-T reading, mean of three wells (column suffix _20, reading M90): 1.855 | Fig. 7a Th-T reading, mean of three wells (column suffix _20, reading M91): 1.818 | Fig. 7a Th-T reading, mean of three wells (column suffix _20, reading M92): 1.795 | Fig. 7a Th-T reading, mean of three wells (column suffix _20, reading M93): 1.7999 | Fig. 7a Th-T reading, mean of three wells (column suffix _20, reading M94): 1.805 | Fig. 7a Th-T reading, mean of three wells (column suffix _20, reading M95): 1.783 | Fig. 7a Th-T reading, mean of three wells (column suffix _20, reading M96): 1.793 | Fig. 7a Th-T reading, mean of three wells (column suffix _20, reading M97): 1.78 | Fig. 7a Th-T reading, mean of three wells (column suffix _20, reading M98): 1.799 | Fig. 7a Th-T reading, mean of three wells (column suffix _20, reading M99): 1.789 | Fig. 7a Th-T reading, mean of three wells (column suffix _20, reading M100): 1.781
